Tests used:
STAT1 phosphorylation = assay: STAT-1 phosphorylation in THP1-derived macrophages, flow cytometry; format: cell-based; conditions: IL28B 100 ng/mL, peptide 1 at 10 μM for 90 min before IL28B, peptide 17 added together with IL28B
Protocol: The effect of peptide 1 and peptide 17 on STAT-1 phosphorylation in macrophages was tested using flow cytometry.
STAT1 phosphorylation is one of the earliest events that occur after the IFN receptor is activated. THP1 cells (a monocytic cell line) were stimulated for 3 days with phorbol-12-myristate-13-acetate (PMA) and then rested for another 5 days in standard cultivation methods (37° C. 5% CO2) with RPMI containing 10% fetal calf serum (FCS). After 3 days, the PMA was removed and fresh media added. This treatment induces maturation of THP1, such that the THP1 cells are induced to express macrophage markers (Daigneault et al. (2010) PLoSOne 5:e8668). Next, the cells were treated: (i) either for 90 min with peptide 1 at a concentration of 10 μM and then added IL28B at 100 ng/mL or (ii) peptide 17 was added directly together with IL28B. “Scramble p1” is a control peptide with the amino acid sequence of p1 scrambled. Scramble p17” is a control peptide with the amino acid sequence of p17 scrambled.

[1] = target: T1, binding of IL29 to IL-28R (Homo sapiens, UniProt Q8IU57); assay: ELISA assay, effect of peptides on binding of IL29 to IL-28R; conditions: for inhibition of the binding of IL29 to IL-28R: increasing peptide concentrations
T1 sequence (Q8IU57 21-228 limits assumed): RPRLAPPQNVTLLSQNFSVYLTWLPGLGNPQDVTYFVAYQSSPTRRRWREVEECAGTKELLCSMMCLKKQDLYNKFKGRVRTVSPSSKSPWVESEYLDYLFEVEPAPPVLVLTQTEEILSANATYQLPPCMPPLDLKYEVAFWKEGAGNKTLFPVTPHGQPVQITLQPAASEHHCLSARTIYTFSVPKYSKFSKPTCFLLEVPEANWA

CMV (Towne strain) = assay: CMV replication plaque assay in HFF-1 cells; format: cell-based, cytomegalovirus (CMV); conditions: HFF-1 cells pre-treated 2 h with peptide 10 μM; for inhibitory effect on CMV replication (viral growth curves, plaque assay): CMV Towne MOI 0.03, day 4 and day 6
Protocol: The data are depicted in FIG. 1. […] HFF-1 cells were pre-treated for 2 h with peptides (10 μM), then washed and infected with CMV (Towne strain, MOI 0.03) and viral growth curves were generated.
Peptides PRT ([…]; SEQ ID NO:23). LKY (ASVTFNLFRLLTRDLKY; SEQ ID NO: 15), and LNC (ASVTFNLFRLLTRDLNC; SEQ ID NO: 16) were pre-incubated at a concentration of 10 μM with HFF-1 cells (ATCC HS97FS. SCRC1041, and CCD1112SK). The cells were washed, then challenged with IL-28B (100 ng/ml) for 30 minutes. Peptides REV ([…]; SEQ ID NO:24), FKG ([…]; SEQ ID NO:25), and APP ([…]; SEQ ID NO:26) were pre-incubated for 2 hours with IL-28B, then added to HFF1 for 30 minutes. Proteins were harvested and STAT2 phosphorylation was determined by Western blot analysis. The effect of the peptides on CMV replication in HFF-1 cells was also tested. HFF-1 cells were pre-treated for 2 hours with peptides (10 μM) or control. CMV replication was determined 4 days later using plaque assays. The data are depicted in FIGS. 19 and 20. In FIG. 19, the data are from Western blot experiments. HFF11 cells were pre-treated with individual peptides for 2 hours, then challenged with IL28B for 30 minutes. Results were normalized to STAT2 and β-tubulin baseline expression. In FIG. 20, the data are from plaque assays. HFF1 cells were pre-treated with individual peptides for 2 hours, then infected with CMV Towne strain (multiplicity of infection 0.03). Plaque forming units (PFU) at day 4 were determined.

[2] = target: T2, binding of IL28A to IL-28R (Homo sapiens, UniProt Q8IU57); assay: ELISA assay, effect of peptides on binding of IL28A to IL-28R; conditions: increasing peptide concentrations
T2 sequence (Q8IU57 21-228 limits assumed): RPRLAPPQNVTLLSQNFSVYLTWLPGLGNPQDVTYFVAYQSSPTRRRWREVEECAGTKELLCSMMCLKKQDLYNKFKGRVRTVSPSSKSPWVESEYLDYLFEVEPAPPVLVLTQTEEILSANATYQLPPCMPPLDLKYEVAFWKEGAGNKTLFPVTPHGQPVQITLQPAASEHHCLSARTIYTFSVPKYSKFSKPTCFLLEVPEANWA

STAT2 phosphorylation = STAT2 phosphorylation in HFF-1 cells challenged with IL-28B, Western blot; format: cell-based, human; conditions: for blocking of STAT-2 phosphorylation: peptide pre-incubated 2 hours with IL-28B, then added to HFF1 for 30 minutes; for reduction in STAT2-phosphorylation: HFF-1 cells pre-incubated with peptide 10 μM, washed, IL-28B 100 ng/ml 30 minutes, normalized to STAT2 and β-tubulin
IL28R1 = target: T3, IL28R1 (Homo sapiens, UniProt Q8IU57); assay: Biacore assay, binding of interferon lambda ligands to IL28R1
T3 sequence (Q8IU57 21-520): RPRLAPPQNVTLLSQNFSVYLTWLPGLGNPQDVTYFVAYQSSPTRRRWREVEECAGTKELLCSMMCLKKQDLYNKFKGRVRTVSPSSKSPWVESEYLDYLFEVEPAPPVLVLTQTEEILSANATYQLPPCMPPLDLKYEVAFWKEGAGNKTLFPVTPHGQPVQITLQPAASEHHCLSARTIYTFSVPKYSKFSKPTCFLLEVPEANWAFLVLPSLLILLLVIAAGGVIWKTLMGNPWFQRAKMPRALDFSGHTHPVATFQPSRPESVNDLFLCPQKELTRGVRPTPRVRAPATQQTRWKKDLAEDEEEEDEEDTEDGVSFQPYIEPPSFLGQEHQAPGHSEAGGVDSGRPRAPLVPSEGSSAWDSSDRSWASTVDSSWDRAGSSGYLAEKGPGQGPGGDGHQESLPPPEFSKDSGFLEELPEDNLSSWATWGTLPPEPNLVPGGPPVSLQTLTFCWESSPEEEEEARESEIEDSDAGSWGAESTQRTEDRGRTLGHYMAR
Excerpt: FIG. 9 depicts binding affinity (KD values in PM) of ligands IL28A, IL28B, and IL29, and of peptides 1, 2, 6, 7, and 15-18, for IL28R1. […] In […], the KD values indicate differences between peptides.
FIG. 10 depicts the effect of peptides on binding of IL29 to IL-28R. Binding of IL29 was disrupted by addition of increasing peptide concentrations.

With ELASFKKARDALEESLKL [Peptide 1] the STAT1 phosphorylation (STAT1 phosphorylation) was “reduce STAT1 phosphorylation”, the “IC50 for inhibition of IL29 binding, as excess of peptide over the natural ligand” value [1] was 50 time excess of peptide over the natural ligand and the “inhibition of the binding of IL29 to IL-28R” value [1] was “highly potent”. For the same molecule, the “inhibitory effect on CMV replication (viral growth curves, plaque assay)” value (shortened to “inhibitory effect on CMV replication”) (CMV (Towne strain)) was “strong inhibitory effects”.

With KLKNWSCSSPVFPGNWDLRL [Peptide 17] the STAT1 phosphorylation (STAT1 phosphorylation) was “reduce STAT1 phosphorylation” and the “inhibition of the binding of IL28A to IL-28R” value [2] was “potent”.

With SEYLDYLFEVEPAPP [Peptide 10] the “blocking of STAT-2 phosphorylation” value (STAT2 phosphorylation) was “None of peptides REV, FKG, and APP blocked”.

In the case of LLKDCKCRSRLFPRTWDLRQ [Peptide 15], the “inhibition of the binding of IL28A to IL-28R” value [2] is reported as “potent”.

In the case of “MMCLKKQDLYNKFKG (MMCLKKQDLYNKFRG) [Peptide 9]”, the “blocking of STAT-2 phosphorylation” value (STAT2 phosphorylation) is reported as “None of peptides REV, FKG, and APP blocked”.

With LLKDCRCHSRLFPRTWDLRQ [Peptide 16] the “inhibition of the binding of IL28A to IL-28R” value [2] was “potent”.

VAYQSSPTRRRWREV [Peptide 8] was tested, and the “blocking of STAT-2 phosphorylation” value (STAT2 phosphorylation) was “None of peptides REV, FKG, and APP blocked”.

For ASVTFNLFRLLTRDLKY [Peptide 6], the “inhibition of the binding of IL29 to IL-28R” value [1] was “highly potent”, the “reduction in STAT2-phosphorylation” value (STAT2 phosphorylation) was 40% and the “inhibitory effect on CMV replication” value (CMV (Towne strain)) was “strong inhibitory effects”.

ASVTFNLFRLLTRDLNC [Peptide 7] was tested, and the “reduction in STAT2-phosphorylation” value (STAT2 phosphorylation) was 34%, the “lower CMV replication (plaque forming units)” value (CMV (Towne strain); CMV Towne MOI 0.03, day 4 after infection) was 2.5 log10 and the “inhibitory effect on CMV replication” value (CMV (Towne strain)) was “strong inhibitory effects”.

B1: IL29: polypeptide of about 200 amino acids which binds a heterodimeric IL-28 receptor complex (protein, listed as Homo sapiens)
chain: MAAAWTVVLVTLVLGLAVAGPVPTSKPTTTGKGCHIGRFKSLSPQELASFKKARDALEESLKLKNWSCSSPVFPGNWDLRLLQVRERPVALEAELALTLKVLEAAAGPALEDVLDQPLHTLHHILSQLQACIQPQPTAGPRPRGRLHHWLHRLQEAPKKESAGCLEASVTFNLFRLLTRDLKYVADGNLCLRTSTHPEST
For B1, the “binding affinity towards IL28R1” value (IL28R1) was “highest binding affinity of all Interferon lambdas”.

B2: IL28B: polypeptide of about 196 amino acids which binds a heterodimeric IL-28R complex (protein, listed as Homo sapiens)
chain: MTGDCMPVLVLMAAVLTVTGAVPVARLRGALPDARGCHIAQFKSLSPQELQAFKRAKDALEESLLLKDCKCRSRLFPRTWDLRQLQVRERPVALEAELALTLKVLEATADTDPALGDVLDQPLHTLHHILSQLRACIQPQPTAGPRTRGRLHHWLHRLQEAPKKESPGCLEASVTFNLFRLLTRDLNCVASGDLCV
In the case of B2, the “binding affinity towards IL28R1” value (IL28R1) is reported as “significant lower binding affinity”.
